In US20230124862A1, “BISMUTH THIOL COMPOUNDS AND COMPOSITIONS AND METHODS OF TREATING MICROBIAL CO-INFECTIONS” (Microbion Corporation, priority 2020, published 2023):
≈ marks a conversion by molar mass, not a printed value. Read-outs that look alike come from different tables or passages of the source.

Assays:
fungal pathogens = test: Antifungal activity, NIH/NIAID sponsored study; assay type: cell-based; details: 100% endpoint
[1] = Particle size distribution of BisEDT samples vs processing conditions; assay type: physicochemical
[2] = tested on: Burkholderia cepacia complex; test: Checkerboard FIC/FICI assay; assay type: cell-based, Burkholderia spp.
P. aeruginosa = test: Checkerboard FIC/FICI assay; assay type: cell-based, Pseudomonas aeruginosa; details: for Drug B MIC: Colistin alone (checkerboard with BisEDT); for FICB / MICB: Colistin in combination with BisEDT, by checkerboard
[3] = particle size distribution of BisEDT samples

CC[C@@H]([C@H](C)O)n1ncn(-c2ccc(N3CCN(c4ccc(OC[C@@H]5CO[C@@](Cn6cncn6)(c6ccc(F)cc6F)C5)cc4)CC3)cc2)c1=O [Posaconazole] showed an MIC (fungal pathogens; Paecilomyces variotii, read-out: Antifungal activity, MIC 100%, P. variotii CLSI QC) of no more than 0.03 µg/mL, an MIC (fungal pathogens; Rhizopus arrhizus, read-out: Antifungal activity, MIC 100%, R. arrhizus RA1) of 4 µg/mL (≈ 5.71 µM) and an MIC (fungal pathogens; Rhizopus arrhizus, read-out: Antifungal activity, MIC 100%, R. arrhizus RA2) of 0.06 µg/mL (≈ 0.0856 µM). The MIC (fungal pathogens; Rhizopus arrhizus, read-out: Antifungal activity, MIC 100%, R. arrhizus RA3) was 0.125 µg/mL (≈ 0.178 µM).

In the case of C1C[S][Bi]([S]CC[S][Bi]2[S]CC[S]2)[S]1 [Sample 13], the “D(10)” value ([1]; crystalline BisEDT samples) is reported as 0.36 μm, the “D(50)” value ([1]; crystalline BisEDT samples) is reported as 0.98 μm and the “D(90)” value ([1]; crystalline BisEDT samples) is reported as 2.1 μm. The “D[4, 3]” value ([1]; crystalline BisEDT samples) was 1.2 μm, the “D(10)” value [1, 3] was 0.36 μm and the “D(50)” value [1, 3] was 0.98 μm. The “D(90)” value [1, 3] was 2.1 μm and the “D[4, 3]” value [1, 3] was 1.2 μm.

For C1C[S][Bi]([S]CC[S][Bi]2[S]CC[S]2)[S]1 [Sample 14], the “D(10)” value ([1]; crystalline BisEDT samples) was 0.36 μm, the “D(50)” value ([1]; crystalline BisEDT samples) was 1.0 μm and the “D(90)” value ([1]; crystalline BisEDT samples) was 2.1 μm. The “D[4, 3]” value ([1]; crystalline BisEDT samples) was 1.2 μm, the “D(10)” value [1, 3] was 0.36 μm and the “D(50)” value [1, 3] was 1.0 μm. For the same molecule, the “D(90)” value [1, 3] was 2.1 μm and the “D[4, 3]” value [1, 3] was 1.2 μm.

With C1C[S][Bi]([S]CC[S][Bi]2[S]CC[S]2)[S]1 [Sample 15] the “D(10)” value ([1]; crystalline BisEDT samples) was 0.32 μm, the “D(50)” value ([1]; crystalline BisEDT samples) was 0.72 μm and the “D(90)” value ([1]; crystalline BisEDT samples) was 1.6 μm. The “D[4, 3]” value ([1]; crystalline BisEDT samples) was 0.86 μm, the “D(10)” value [1, 3] was 0.32 μm and the “D(50)” value [1, 3] was 0.72 μm. The “D(90)” value [1, 3] was 1.6 μm and the “D[4, 3]” value [1, 3] was 0.86 μm.

Work on NC[C@H]1O[C@H](O[C@H]2[C@H](O)[C@@H](O[C@H]3O[C@H](CO)[C@@H](O)[C@H](N)[C@H]3O)[C@H](N)C[C@@H]2N)[C@H](N)C[C@@H]1O [Topramycin] yielded an FICB ([2]; B. cepacia 546, Topramycin in combination with BisEDT, by checkerboard) of 0.5.

For Colistin, the “Drug B MIC” value (P. aeruginosa; P. aeruginosa 6322) was 0.5 µg/mL, the FICB (P. aeruginosa; P. aeruginosa 6322) was 1 and the MICB (P. aeruginosa; P. aeruginosa 6322) was 0.5 µg/mL. The “Drug B MIC” value (P. aeruginosa; P. aeruginosa 6977) was 1 µg/mL, the FICB (P. aeruginosa; P. aeruginosa 6977) was 1 and the MICB (P. aeruginosa; P. aeruginosa 6977) was 1 µg/mL. The “Drug B MIC” value (P. aeruginosa; P. aeruginosa 7745) was 0.5 µg/mL, the FICB (P. aeruginosa; P. aeruginosa 7745) was 1 and the MICB (P. aeruginosa; P. aeruginosa 7745) was 0.5 µg/mL. The “Drug B MIC” value (P. aeruginosa; P. aeruginosa 9108) was 0.0005 µg/mL, the “Drug B MIC” value (P. aeruginosa; isolate 8798 (organism name not given)) was greater than 0.256 µg/mL and the FICB ([2]; B. multivorans 1795, FIC of Colistin (Drug B) in combination with BisEDT) was 1.
